# In patent US4948782A, “A method of promoting the growth of domestic animals with erythromycin derivative containing composition” (Kitasato Kenkyusho, priority 1987, dated 1990):
# Experiments:
# Format in all cases: cell-based
# Bacillus subtilis = experiment: MIC, Bacillus subtilis (BS); conditions: read-out: MIC BS
# [1] = test system: Klebsiella pneumoniae ATCC 10031; experiment: MIC, Klebsiella pneumoniae ATCC 10031 (KP); conditions: ATCC10031; Klebsiella pneumoniae ATCC 10031; read-out: MIC KP
# [2] = test system: Staphylococcus aureus FDA 209P; experiment: MIC, Staphylococcus aureus FDA 209P (SA(2)); conditions: Staphylococcus aureus, FDA209P, Staphylococcus aureus FDA 209P; read-out: MIC SA (2)
# Excerpt: (§1) The minimum inhibitory concentrations (MIC: mcg/ml) of the erythromycin derivatives of the present invention and the control erythromycin derivative (*) as the known growth promoting agent on typical test bacteria are shown in the following Tables 1 to 5.
# SA(2): Staphylococcus aureus FDA 209P
# Escherichia coli NIHJ = experiment: MIC, Escherichia coli NIHJ (EC)
# Bacillus cereus IFO 3001 = experiment: MIC, Bacillus cereus IFO 3001 (BC); conditions: Bacillus cereus, IFO3001, Bacillus cereus IFO 3001; read-out: MIC BC
# [3] = test system: Staphylococcus aureus ATCC 6538P; experiment: MIC, Staphylococcus aureus ATCC 6538P (SA(1)); conditions: Staphylococcus aureus, ATCC6538P, Staphylococcus aureus ATCC 6538P; read-out: MIC SA (1)
# Excerpt: as §1
# SA(1): Staphylococcus aureus ATCC 6538P
MIC (Bacillus subtilis),MIC [1],MIC [2],MIC (Escherichia coli NIHJ),MIC (Bacillus cereus IFO 3001),MIC [3],Structure (SMILES)
> 100 µg/mL,> 100 µg/mL,> 100 µg/mL,> 100 µg/mL,> 100 µg/mL,> 100 µg/mL,CCC1OC(=O)C(C)C(OC2CC(C)(OC)C(O)C(C)O2)C(C)C(OC2OC(C)CC(N(C)CC)C2O)C2(C)CC(C)=C(O2)C(C)C(OC(C)=O)C1(C)OC(C)=O (stereo not drawn) [Compound 53]
> 100 µg/mL,> 100 µg/mL,> 100 µg/mL,> 100 µg/mL,> 100 µg/mL,> 100 µg/mL,CCC1OC(=O)C(C)C(OC2CC(C)(OC)C(O)C(C)O2)C(C)C(OC2OC(C)CC(N(C)CC)C2O)C2(C)CC(C)=C(O2)C(C)C2OC(=O)OC12C (stereo not drawn) [Compound 54]
12.5 µg/mL,> 100 µg/mL,12.5 µg/mL,> 100 µg/mL,12.5 µg/mL,12.5 µg/mL,C#CC[N+](C)(C)C1CC(C)OC(OC2C(C)C(OC3CC(C)(OC)C(O)C(C)O3)C(C)C(=O)OC(CC)C3(C)OC(C)(C)OC3C(C)C3=C(C)CC2(C)O3)C1O (stereo not drawn) [Compound 55]
50 µg/mL,> 100 µg/mL,100 µg/mL,> 100 µg/mL,100 µg/mL,50 µg/mL,C#CC[N+](C)(C)C1CC(C)OC(OC2C(C)C(OC3CC(C)(OC)C(O)C(C)O3)C(C)C(=O)OC(CC)C3(C)OB(c4ccccc4)OC3C(C)C3=C(C)CC2(C)O3)C1O (stereo not drawn) [Compound 56]
50 µg/mL,> 100 µg/mL,50 µg/mL,> 100 µg/mL,25 µg/mL,25 µg/mL,C#CC[N+](C)(C)C1CC(C)OC(OC2C(C)C(OC3CC(C)(OC)C(O)C(C)O3)C(C)C(=O)OC(CC)C3(C)OC(=O)OC3C(C)C3=C(C)CC2(C)O3)C1O (stereo not drawn) [Compound 57]
> 100 µg/mL,> 100 µg/mL,> 100 µg/mL,> 100 µg/mL,> 100 µg/mL,> 100 µg/mL,CC[C@H]1OC(=O)[C@H](C)[C@@H](O[C@H]2C[C@@](C)(OC)[C@@H](OC=O)[C@H](C)O2)[C@H](C)[C@@H](O[C@@H]2O[C@H](C)C[C@H]([N+](C)(C)C)[C@H]2O)[C@@]2(C)CC(C)=C(O2)[C@H](C)[C@@H](O)[C@]1(C)O [Compound 58]
> 100 µg/mL,> 100 µg/mL,> 100 µg/mL,> 100 µg/mL,> 100 µg/mL,> 100 µg/mL,CC[C@H]1OC(=O)[C@H](C)[C@@H](O[C@H]2C[C@@](C)(OC)[C@@H](OC=O)[C@H](C)O2)[C@H](C)[C@@H](O[C@@H]2O[C@H](C)C[C@H]([N+](C)(C)CC)[C@H]2O)[C@@]2(C)CC(C)=C(O2)[C@H](C)[C@@H](O)[C@]1(C)O [Compound 59]
> 100 µg/mL,> 100 µg/mL,> 100 µg/mL,> 100 µg/mL,> 100 µg/mL,> 100 µg/mL,C#CC[N+](C)(C)[C@H]1C[C@@H](C)O[C@@H](O[C@@H]2[C@@H](C)[C@H](O[C@H]3C[C@@](C)(OC)[C@@H](OC=O)[C@H](C)O3)[C@@H](C)C(=O)O[C@H](CC)[C@@](C)(O)[C@H](O)[C@@H](C)C3=C(C)C[C@@]2(C)O3)[C@@H]1O [Compound 60]
> 100 µg/mL,> 100 µg/mL,> 100 µg/mL,> 100 µg/mL,> 100 µg/mL,> 100 µg/mL,CC[C@H]1OC(=O)[C@H](C)[C@@H](O[C@H]2C[C@@](C)(OC)[C@@H](O)[C@H](C)O2)[C@H](C)[C@@H](O[C@@H]2O[C@H](C)C[C@H]([N+](C)(C)CC)[C@H]2O)[C@@]2(C)CC(C)=C(O2)[C@H](C)[C@@H](O)[C@]1(C)O [Compound 61]
> 100 µg/mL,> 100 µg/mL,> 100 µg/mL,> 100 µg/mL,> 100 µg/mL,> 100 µg/mL,CC[C@H]1OC(=O)[C@H](C)[C@@H](O[C@H]2C[C@@](C)(OC)[C@@H](O)[C@H](C)O2)[C@H](C)[C@@H](O[C@@H]2O[C@H](C)C[C@H]([N+](C)(C)C)[C@H]2O)[C@@]2(C)CC(C)C(O2)[C@H](C)[C@@H](O)[C@]1(C)O (stereo partly drawn) [Compound 62]
> 100 µg/mL,> 100 µg/mL,> 100 µg/mL,> 100 µg/mL,> 100 µg/mL,> 100 µg/mL,CC[C@H]1OC(=O)[C@H](C)[C@@H](O[C@H]2C[C@@](C)(OC)[C@@H](O)[C@H](C)O2)[C@H](C)[C@@H](O[C@@H]2O[C@H](C)C[C@H]([N+](C)(C)CC)[C@H]2O)[C@@]2(C)CC(C)C(O2)[C@H](C)[C@@H](O)[C@]1(C)O (stereo partly drawn) [Compound 63]
> 100 µg/mL,> 100 µg/mL,> 100 µg/mL,> 100 µg/mL,> 100 µg/mL,> 100 µg/mL,CCC[N+](C)(C)[C@H]1C[C@@H](C)O[C@@H](O[C@@H]2[C@@H](C)[C@H](O[C@H]3C[C@@](C)(OC)[C@@H](O)[C@H](C)O3)[C@@H](C)C(=O)O[C@H](CC)[C@@](C)(O)[C@H](O)[C@@H](C)C3O[C@]2(C)CC3C)[C@@H]1O (stereo partly drawn) [Compound 64]
50 µg/mL,> 100 µg/mL,100 µg/mL,> 100 µg/mL,100 µg/mL,100 µg/mL,CCCC[N+](C)(C)[C@H]1C[C@@H](C)O[C@@H](O[C@@H]2[C@@H](C)[C@H](O[C@H]3C[C@@](C)(OC)[C@@H](O)[C@H](C)O3)[C@@H](C)C(=O)O[C@H](CC)[C@@](C)(O)[C@H](O)[C@@H](C)C3O[C@]2(C)CC3C)[C@@H]1O (stereo partly drawn) [Compound 65]
100 µg/mL,> 100 µg/mL,100 µg/mL,> 100 µg/mL,100 µg/mL,100 µg/mL,C=CC[N+](C)(C)[C@H]1C[C@@H](C)O[C@@H](O[C@@H]2[C@@H](C)[C@H](O[C@H]3C[C@@](C)(OC)[C@@H](O)[C@H](C)O3)[C@@H](C)C(=O)O[C@H](CC)[C@@](C)(O)[C@H](O)[C@@H](C)C3O[C@]2(C)CC3C)[C@@H]1O (stereo partly drawn) [Compound 66]
> 100 µg/mL,> 100 µg/mL,> 100 µg/mL,> 100 µg/mL,> 100 µg/mL,> 100 µg/mL,C#CC[N+](C)(C)[C@H]1C[C@@H](C)O[C@@H](O[C@@H]2[C@@H](C)[C@H](O[C@H]3C[C@@](C)(OC)[C@@H](O)[C@H](C)O3)[C@@H](C)C(=O)O[C@H](CC)[C@@](C)(O)[C@H](O)[C@@H](C)C3O[C@]2(C)CC3C)[C@@H]1O (stereo partly drawn) [Compound 67]
> 100 µg/mL,> 100 µg/mL,> 100 µg/mL,> 100 µg/mL,> 100 µg/mL,> 100 µg/mL,C#CC[N+](C)(C)[C@H]1C[C@@H](C)O[C@@H](O[C@@H]2[C@@H](C)[C@H](O[C@H]3C[C@@](C)(OC)[C@@H](O)[C@H](C)O3)[C@@H](C)C(=O)O[C@H](CC)[C@@](C)(O)[C@H](O)[C@@H](C)C3O[C@]2(C)CC3C)[C@@H]1OC(C)=O (stereo partly drawn) [Compound 68]
> 100 µg/mL,> 100 µg/mL,> 100 µg/mL,> 100 µg/mL,> 100 µg/mL,> 100 µg/mL,CC[C@H]1OC(=O)[C@H](C)[C@@H](O[C@H]2C[C@@](C)(OC)[C@@H](O)[C@H](C)O2)[C@H](C)[C@@H](O[C@@H]2O[C@H](C)C[C@H](N(C)CC)[C@H]2O)[C@@]2(C)CC(C)C(O2)[C@H](C)[C@@H](O)[C@]1(C)O (stereo partly drawn) [Compound 69]
> 100 µg/mL,> 100 µg/mL,> 100 µg/mL,> 100 µg/mL,> 100 µg/mL,> 100 µg/mL,CC[C@H]1OC(=O)[C@H](C)[C@@H](O[C@H]2C[C@@](C)(OC)[C@@H](O)[C@H](C)O2)[C@H](C)[C@@H](O[C@@H]2O[C@H](C)C[C@H]([N+](C)(C)C)[C@H]2O)[C@@]2(C)CC(C)C3(O[C@@]1(C)[C@H](O)[C@H]3C)O2 (stereo partly drawn) [Compound 70]
